From US7091202B2, “4-arylspirocycloalkyl-2-aminopyrimidine carboxamide KCNQ potassium channel modulators” (Bristol-Myers Squibb Company, priority 2004, dated 2006)

Target: T1, hQ23 (HEK-293 cell line stably transfected with one of the members of the KCNQ family) (Homo sapiens, UniProt O43525+O43526)
T1 construct: expressed in transfected cells; host or cells: HEK-293, stably transfected
Experiment: Thallium flux assay for KCNQ channel blockers (FLIPR, BTC dye)
Type: cell-based
Details: Table 2; thallium flux, HEK-293
Protocol: Thallium Flux Assay for KCNQ channel blockers. Approximately 20,000 cells/well of an HEK-293 cell line stably transfected with one of the members of the KCNQ family were plated into clear-bottom, black-walled, poly-D-lysine coated, 384 well assay plates in 20 μl/well of low chloride plating medium. Low chloride plating medium was composed of the following: sodium gluconate, 109 mM; potassium gluconate, 5.4 mM; hemi-calcium gluconate, 3.6 mM; magnesium sulfate, 0.8 mM; sodium bicarbonate, 26.2 mM; sodium phosphate monobasic, 1.2 mM; glutamine, 2 mM; glucose, 5 mM; HEPES (pH 7.3) 10 mM, 10× concentration of vitamins (Gibco/LifeTechnologies catalog #11120-052) and 1× concentration of amino acids (Gibco/LifeTechnologies catalog #11130-051).
Following overnight incubation in a 5% CO2 incubator at 37° C., the cells in the plates were loaded with 20 μl/well of a dye loading solution containing the acetomethoxy ester of the thallium-sensitive fluorescent dye BTC, BTC-AM (2 μM) and pluronic acid (0.02% w/v) in chloride free assay buffer. Chloride free assay buffer was composed of the following: sodium gluconate, 140 mM; potassium gluconate, 2.5 mM; hemi-calcium gluconate, 6 mM; hemi-magnesium gluconate, 2 mM; glucose, 5 mM; HEPES (pH 7.3), 10 mM.
Following incubation in the dye loading solution for from 45–90 min at room temperature, the dye loading solution was removed by aspiration and replaced with 40 μl/well of chloride free assay buffer.
Prior to addition to cell plates, test compound and standard compounds were dissolved in DMSO to 3 mM concentration. Compounds were then diluted from the 3 mM stock to 100-fold over the final assay concentration in DMSO. Finally, compounds in DMSO were diluted from 100-fold over the final assay concentration to 5-fold over the final assay concentration in chloride free assay buffer.
Ten μl/well of compounds at 5-fold over the final assay concentration were then added to the cell plates. This represents a 1:5 dilution, yielding the final test concentration. The wells used for test compounds were A1–P20. Wells A21–P22 contained a standard ‘blocker’ and a fully efficacious concentration (positive control). Wells A23–P24 contained chloride free assay buffer containing 1% DMSO (negative control).
Following addition of test compounds, the plates were loaded onto the Molecular Devices FLIPR. The 488 nm line of the argon laser was used to excite the BTC and the emission filter was a 540(+/−30) nm. Images were collected at 1 Hz. Ten seconds of baseline were collected and then the FLIPR was used to add 13 μl/well of a stimulus buffer composed of Tl2SO4, 25 mM; sodium gluconate, 30 mM; potassium sulfate, 50 mM; hemi-calcium gluconate, 6 mM; hemi-magnesium gluconate, 2 mM; glucose, 5 mM; HEPES (pH 7.3), 10 mM in chloride free assay buffer. Images were collected for an additional 60 seconds.
For data analysis, the amplitude of the average of the negative controls was subtracted from all wells. The amplitudes of the test compounds were then compared to the value of four standard deviations of the negative control wells. The lowest concentration of a test compound sufficient to generate a signal amplitude greater than or equal to four standard deviations from the amplitude of the negative controls was defined as the minimal active concentration.
For generating IC50 values, compounds were serially diluted in 1:3 volume increments to produce a 10 point concentration series. IC50 values were calculated by fitting the resulting amplitudes to a single-site logistic equation. IC50 was defined as the concentration of test compound required to yield 50% of the response of the positive control.

T1 sequence (O43526 whole entry): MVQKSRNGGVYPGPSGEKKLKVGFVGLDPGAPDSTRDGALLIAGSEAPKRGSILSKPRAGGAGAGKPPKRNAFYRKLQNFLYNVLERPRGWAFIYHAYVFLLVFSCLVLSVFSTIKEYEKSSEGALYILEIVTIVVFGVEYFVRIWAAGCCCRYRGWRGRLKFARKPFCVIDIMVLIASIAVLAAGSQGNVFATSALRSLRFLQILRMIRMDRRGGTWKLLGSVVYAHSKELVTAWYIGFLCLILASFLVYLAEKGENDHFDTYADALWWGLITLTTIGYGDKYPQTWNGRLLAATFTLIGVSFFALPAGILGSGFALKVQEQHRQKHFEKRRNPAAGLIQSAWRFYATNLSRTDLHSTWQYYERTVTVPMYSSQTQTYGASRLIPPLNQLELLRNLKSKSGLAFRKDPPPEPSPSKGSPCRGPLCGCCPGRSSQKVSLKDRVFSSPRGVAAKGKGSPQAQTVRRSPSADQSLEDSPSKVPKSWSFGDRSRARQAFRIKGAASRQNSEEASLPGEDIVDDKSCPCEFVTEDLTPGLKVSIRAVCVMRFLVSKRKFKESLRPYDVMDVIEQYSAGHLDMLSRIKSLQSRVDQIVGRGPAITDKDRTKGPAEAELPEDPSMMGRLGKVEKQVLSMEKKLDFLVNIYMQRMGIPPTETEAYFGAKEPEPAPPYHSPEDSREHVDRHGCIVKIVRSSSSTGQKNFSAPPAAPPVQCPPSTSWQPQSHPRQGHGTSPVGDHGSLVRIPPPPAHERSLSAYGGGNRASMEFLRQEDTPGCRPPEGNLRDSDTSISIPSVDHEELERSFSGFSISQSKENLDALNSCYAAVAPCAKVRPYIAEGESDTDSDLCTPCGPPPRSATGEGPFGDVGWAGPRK
T1 sequence (O43525 whole entry): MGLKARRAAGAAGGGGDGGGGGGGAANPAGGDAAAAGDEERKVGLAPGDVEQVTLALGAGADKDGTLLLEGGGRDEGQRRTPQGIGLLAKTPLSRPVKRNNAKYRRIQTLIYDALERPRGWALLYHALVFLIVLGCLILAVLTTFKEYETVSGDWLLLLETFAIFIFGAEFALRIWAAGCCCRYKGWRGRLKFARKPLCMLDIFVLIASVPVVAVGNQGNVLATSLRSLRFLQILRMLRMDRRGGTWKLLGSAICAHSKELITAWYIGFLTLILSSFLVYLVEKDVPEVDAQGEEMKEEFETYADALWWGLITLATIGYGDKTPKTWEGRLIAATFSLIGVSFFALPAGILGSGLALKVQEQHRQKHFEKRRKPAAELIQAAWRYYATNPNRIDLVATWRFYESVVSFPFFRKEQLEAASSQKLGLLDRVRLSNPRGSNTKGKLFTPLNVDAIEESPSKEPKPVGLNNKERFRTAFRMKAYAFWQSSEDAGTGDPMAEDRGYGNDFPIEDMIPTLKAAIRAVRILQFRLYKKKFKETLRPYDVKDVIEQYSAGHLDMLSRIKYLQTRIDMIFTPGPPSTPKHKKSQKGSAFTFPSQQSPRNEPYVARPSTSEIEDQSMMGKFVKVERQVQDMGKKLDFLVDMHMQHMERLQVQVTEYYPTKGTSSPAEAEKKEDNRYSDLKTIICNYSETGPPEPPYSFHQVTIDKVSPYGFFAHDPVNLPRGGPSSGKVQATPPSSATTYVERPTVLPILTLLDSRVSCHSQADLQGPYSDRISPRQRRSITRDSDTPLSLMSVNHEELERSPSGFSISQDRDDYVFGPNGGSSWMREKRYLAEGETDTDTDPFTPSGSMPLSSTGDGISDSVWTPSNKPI

Point of comparison: `CC1CCN(c2ncc(C(=O)NCc3ccc(Cl)cc3Cl)c(C3(c4ccccc4)CC3)n2)CC1` [Example 41, 5-pyrimidinecarboxamide, N-[(2,4-dichlorophenyl)methyl]-2-(4-methyl-1-piperidinyl)-4-(1-phenylcyclopropyl)-], EC50 220 nM. Against it:
- O=C(NCc1ccc2c(c1)OCO2)c1cnc(N2CCCC2)nc1C1(c2ccccc2)CC1 [Example 32, 5-pyrimidinecarboxamide, N-(1,3-benzodioxol-5-ylmethyl)-4-(1-phenylcyclopropyl)-2-(1-pyrrolidinyl)-] — 1.9-fold higher, 413 nM
- CCN(C(=O)c1cnc(N2CCN(C)CC2)nc1C1(c2ccccc2)CC1)C1CCCCC1 [Example 27, 5-pyrimidinecarboxamide, N-cyclohexyl-N-ethyl-2-(4-methyl-1-piperazinyl)-4-(1-phenylcyclopropyl)-] — 2.1-fold higher, 470 nM

Same assay, conditions: Table 3; thallium flux, HEK-293

Work on `O=C(NCc1cccc2ccccc12)c1cnc(N2CCCC2)nc1C1(c2ccc(Cl)cc2)CCC1` [Example 61, 5-pyrimidinecarboxamide, 4-[1-(4-chlorophenyl)cyclobutyl]-N-(1-naphthalenylmethyl)-2-(1-pyrrolidinyl)-] yielded an EC50 of 79 nM.

Same assay, conditions: hQ23 cells, thallium flux

Point of comparison: `CC1CCCN(c2ncc(C(=O)NCc3ccc(Cl)c(Cl)c3)c(C3(c4ccc(Cl)cc4)CCCC3)n2)C1` (stereo not shown) [Example 174, 5-pyrimidinecarboxamide, 4-[1-(4-chlorophenyl)cyclopentyl]-N-[(3,4-dichlorophenyl)methyl]-2-(3-methyl-1-piperidinyl)-], EC50 10 nM. Against it:
- CC(NC(=O)c1cnc(N2CCN(C)CC2)nc1C1(c2ccccc2)CCCC1)c1ccc(F)cc1 (stereo not shown) [Example 133, 5-pyrimidinecarboxamide, N-[1-(4-fluorophenyl)ethyl]-2-(4-methyl-1-piperazinyl)-4-(1-phenylcyclopentyl)-] — 44-fold higher, 442 nM
- CC1CCC(Nc2ncc(C(=O)NC(C)c3cccc4ccccc34)c(C3(c4ccccc4)CCCC3)n2)CC1 (stereo not shown) [Example 95, 5-pyrimidinecarboxamide, 2-[(4-methylcyclohexyl)amino]-N-[1-(1-naphthalenyl)ethyl]-4-(1-phenylcyclopentyl)-] — 6.4-fold higher, 64 nM
- CC1CCN(c2ncc(C(=O)NC(C)c3ccc(F)cc3)c(C3(c4ccc(Cl)cc4)CCCC3)n2)CC1 (stereo not shown) [Example 199, 5-pyrimidinecarboxamide, 4-[1-(4-chlorophenyl)cyclopentyl]-N-[1-(4-fluorophenyl)ethyl]-2-(4-methyl-1-piperidinyl)-] — 6.1-fold higher, 61 nM
- CC1CCN(c2ncc(C(=O)NCc3cc(F)cc(C(F)(F)F)c3)c(C3(c4ccccc4)CCCC3)n2)CC1 [Example 127, 5-pyrimidinecarboxamide, N-[[3-fluoro-5-(trifluoromethyl)phenyl]methyl]-2-(4-methyl-1-piperidinyl)-4-(1-phenylcylopentyl)-] — the same, 10 nM
- CCN(C)C(=O)c1cnc(N2CCC(C)CC2)nc1C1(c2ccc(F)cc2)CCCC1 [Example 227, 5-pyrimidinecarboxamide, N-ethyl-4-[1-(4-fluorophenyl)cyclopentyl]-N-methyl-2-(4-methyl-1-piperidinyl)-] — 88-fold higher, 882 nM
- O=C(NCc1ccc2c(c1)OCO2)c1cnc(NC2CCCC2)nc1C1(c2ccc(Cl)cc2)CCCC1 [Example 156, 5-pyrimidinecarboxamide, N-(1,3-benzodioxol-5-ylmethyl)-4-[1-(4-chlorophenyl)cyclopentyl]-2-(cyclopentylamino)-] — 7-fold higher, 70 nM
- CC1CCN(c2ncc(C(=O)N3CCc4ccccc4C3)c(C3(c4ccccc4)CCCC3)n2)CC1 [Example 74, isoquinoline, 1,2,3,4-tetrahydro-2-[[2-(4-methyl-1-piperidinyl)-4-(1-phenylcyclopentyl)-5-pyrimidinyl]carbonyl]-] — 19-fold higher, 191 nM
- CC(NC(=O)c1cnc(NC2CCCC2)nc1C1(c2ccccc2)CCCC1)c1cccc2ccccc12 (stereo not shown) [Example 100, 5-pyrimidinecarboxamide, 2-(cyclopentylamino)-N-[1-(1-naphthalenyl)ethyl]-4-(1-phenylcyclopentyl)-] — 16-fold higher, 160 nM
- CC1CCN(c2ncc(C(=O)N(C)Cc3ccccc3)c(C3(c4ccc(Cl)cc4)CCCC3)n2)CC1 [Example 140, 5-pyrimidinecarboxamide, 4-[1-(4-chlorophenyl)cyclopentyl]-N-methyl-2-(4-methyl-1-piperidinyl)-N-(phenylmethyl)-] — 25-fold higher, 246 nM
- CN1CCN(c2ncc(C(=O)NCc3ccc(C(F)(F)F)cc3)c(C3(c4ccc(Cl)cc4)CCCC3)n2)CC1 [Example 202, 5-pyrimidinecarboxamide, 4-[1-(4-chlorophenyl)cyclopentyl]-2-(4-methyl-1-piperazinyl)-N-[[4-(trifluoromethyl)phenyl]methyl]-] — 88-fold higher, 879 nM
- CCN(Cc1ccccc1)C(=O)c1cnc(N2CCC(C)CC2)nc1C1(c2ccccc2)CCCC1 [Example 86, 5-pyrimidinecarboxamide, N-ethyl-2-(4-methyl-1-piperidinyl)-4-(1-phenylcyclopentyl)-N-(phenylmethyl)-] — 33-fold higher, 334 nM
- CC1CCN(c2ncc(C(=O)NCc3ccc(F)cc3F)c(C3(c4ccccc4)CCCC3)n2)CC1 [Example 119, 5-pyrimidinecarboxamide, N-[(2,4-difluorophenyl)methyl]-2-(4-methyl-1-piperidinyl)-4-(1-phenylcyclopentyl)-] — 12-fold higher, 122 nM
- CC1CCCN(c2ncc(C(=O)NCc3cc(F)cc(C(F)(F)F)c3)c(C3(c4ccc(Cl)cc4)CCCC3)n2)C1 (stereo not shown) [Example 192, 5-pyrimidinecarboxamide, 4-[1-(4-chlorophenyl)cyclopentyl]-N-[[3-fluoro-5-(trifluoromethyl)phenyl]methyl]-2-(3-methyl-1-piperidinyl)-] — the same, 10 nM
- O=C(c1cnc(NC2CCCC2)nc1C1(c2ccc(Cl)cc2)CCCC1)N1CCc2ccccc2C1 [Example 142, isoquinoline, 2-[[4-[1-(4-chlorophenyl)cyclopentyl]-2-(cyclopentylamino)-5-pyrimidinyl]carbonyl]-1,2,3,4-tetrahydro-] — 54-fold higher, 535 nM
- CCC(C)Nc1ncc(C(=O)NCc2cccc3ccccc23)c(C2(c3ccccc3)CCCC2)n1 (stereo not shown) [Example 105, 5-pyrimidinecarboxamide, 2-[(1-methylpropyl)amino]-N-(1-naphthalenylmethyl)-4-(1-phenylcyclopentyl)-] — 60-fold higher, 604 nM
- CC1CCCN(c2ncc(C(=O)NC(C)c3cccc4ccccc34)c(C3(c4ccc(Cl)cc4)CCCC3)n2)C1 (stereo not shown) [Example 160, 5-pyrimidinecarboxamide, 4-[1-(4-chlorophenyl)cyclopentyl]-2-(3-methyl-1-piperidinyl)-N-[1-(1-naphthalenyl)ethyl]-] — 3-fold higher, 30 nM
- CC1CCN(c2ncc(C(=O)NCc3ccc4c(c3)OCO4)c(C3(c4ccccc4)CCCC3)n2)CC1 [Example 93, 5-pyrimidinecarboxamide, N-(1,3-benzodioxol-5-ylmethyl)-2-(4-methyl-1-piperidinyl)-4-(1-phenylcyclopentyl)-] — 3.7-fold higher, 37 nM

Same assay, conditions: hQ23 cells, thallium flux assay

Point of comparison: `O=C(NCc1cccc2ccccc12)c1cnc(NC2CCCC2)nc1C1(c2ccc(F)cc2)CCCC1` [Example 253, 5-pyrimidinecarboxamide, 2-(cyclopentylamino)-4-[1-(4-fluorophenyl)cyclopentyl]-N-(1-naphthalenylmethyl)-], EC50 183 nM. Against it:
- CN1CCN(c2ncc(C(=O)NCc3ccc(Cl)c(Cl)c3)c(C3(c4ccc(F)cc4)CCCC3)n2)CC1 [Example 254, 5-pyrimidinecarboxamide, N-[(3,4-dichlorophenyl)methyl]-4-[1-(4-fluorophenyl)cyclopentyl]-2-(4-methyl-1-piperazinyl)-] — 2.9-fold higher, 529 nM
- CC1CCC(Nc2ncc(C(=O)NC(C)c3ccc(F)cc3)c(C3(c4ccc(F)cc4)CCCC3)n2)CC1 (stereo not shown) [Example 281, 5-pyrimidinecarboxamide, 4-[1-(4-fluorophenyl)cyclopentyl]-N-[1-(4-fluorophenyl)ethyl]-2-[(4-methylcyclohexyl)amino]-] — 1.6-fold lower, 118 nM
